Laboratory results reported in patent publication US20240300943A1, “NOVEL SALTS OF HETEROCYCLIC COMPOUND AS PROTEIN KINASE INHIBITOR AND USES THEREOF” (HK INNO.N CORPORATION, priority 2021, published 2024).

Columns and labels:
Type in all cases: physicochemical
[1] = Hygroscopicity evaluation; settings: for Individual related material: in %
Description: Samples were placed in a glass desiccator in which relative humidity was adjusted to 33%, 53%, 75%, and 93%, and then stored for two and four weeks to be evaluated.

[2] = Physical stability evaluation under stress conditions
Description: In order to evaluate physical stability, samples were packaged in the form of ((LPDE+N2)+silica gel 1 g+LDPE)+Al-Bag, and stored under stress conditions (60° C.±2° C./80% RH±5%) for 2/4 weeks before evaluation.
In table 2, initial is a result measured after preparation of salts, and S2W and S4W are results measured after two and four weeks while being exposed to stress conditions, respectively.

[3] = Measurement of water solubility; settings: saturated solution shaken at room temperature for 24 hours
Description: A liquid phase was taken out of the solution and filtered using a 0.22 μm PVDF filter. The filtered liquid phase was diluted 10-fold for LC analysis.
LC analysis was performed by the following method.

[4] = Photostability evaluation
Description: Samples were packaged in LPDE bag, and stored under visible (1.2M Lux-h), UV (200 W-h/m2) and UV+visible conditions, respectively, and then evaluated.

Compound `C[C@@H]1CN(C(=O)CC#N)CC=C1c1cc(NC(=O)C2CC2)nc2[nH]ccc12` [Example 4, (S)—N-(4-(1-(2-cyanoacetyl)-3-methyl-1,2,3,6-tetrahydropyridin-4-yl)-1H-pyrrolo[2,3-b]pyridin-6-yl)cyclopropanecarboxamide] has a Total related material ([1]; Initial) of 1.13%, a Water ([1]; Initial) of 0.67% and an Individual related material ([1]; Initial) of 0.13. It also gave a Total related material ([1]; relative humidity 33%, 2 W) of 1.1%, a Water ([1]; relative humidity 33%, 2 W) of 0.56% and an Individual related material ([1]; relative humidity 33%, 2 W) of 0.14. It also gave a Total related material ([1]; relative humidity 33%, 4 W) of 1.07%, a Water ([1]; relative humidity 33%, 4 W) of 0.54% and an Individual related material ([1]; relative humidity 33%, 4 W) of 0.14. It also gave a Total related material ([1]; relative humidity 53%, 2 W) of 1.18%, a Water ([1]; relative humidity 53%, 2 W) of 0.80% and an Individual related material ([1]; relative humidity 53%, 2 W) of 0.15. The Total related material ([1]; relative humidity 53%, 4 W) was 1.04%, the Water ([1]; relative humidity 53%, 4 W) was 0.65% and the Individual related material ([1]; relative humidity 53%, 4 W) was 0.15. For the same compound, the Total related material ([1]; relative humidity 75%, 2 W) was 1.18%, the Water ([1]; relative humidity 75%, 2 W) was 1.44% and the Individual related material ([1]; relative humidity 75%, 2 W) was 0.15. It also gave a Total related material ([1]; relative humidity 75%, 4 W) of 1.18%, a Water ([1]; relative humidity 75%, 4 W) of 1.02% and an Individual related material ([1]; relative humidity 75%, 4 W) of 0.16. The Total related material ([1]; relative humidity 93%, 2 W) was 1.17%, the Water ([1]; relative humidity 93%, 2 W) was 2.03% and the Individual related material ([1]; relative humidity 93%, 2 W) was 0.16. For the same compound, the Total related material ([1]; relative humidity 93%, 4 W) was 1.15%, the Water ([1]; relative humidity 93%, 4 W) was 1.72% and the Individual related material ([1]; relative humidity 93%, 4 W) was 0.17. For the same compound, the C.I quantitative ([2]; Initial) was 40.3%, the “Content (anhydride, as anhydride)” value ([2]; Initial) was 100.4% and the Moisture ([2]; Initial) was 0.67%. For the same compound, the “Purity: Individual related material” value ([2]; Initial) was 0.13%, the “Purity: Total related material” value ([2]; Initial) was 1.13% and the C.I quantitative ([2]; S2W: 2 weeks at 60° C./80% RH) was 40.3%. The “Content (anhydride, as anhydride)” value ([2]; S2W: 2 weeks at 60° C./80% RH) was 101.9%, the “Purity: Individual related material” value ([2]; S2W: 2 weeks at 60° C./80% RH) was 0.23% and the “Purity: Total related material” value ([2]; S2W: 2 weeks at 60° C./80% RH) was 1.32%. For the same compound, the C.I quantitative ([2]; S4W: 4 weeks at 60° C./80% RH) was 40.6%, the “Content (anhydride, as anhydride)” value ([2]; S4W: 4 weeks at 60° C./80% RH) was 101.9% and the Moisture ([2]; S4W: 4 weeks at 60° C./80% RH) was 0.98%. The “Purity: Individual related material” value ([2]; S4W: 4 weeks at 60° C./80% RH) was 0.30%, the “Purity: Total related material” value ([2]; S4W: 4 weeks at 60° C./80% RH) was 1.31% and the Water solubility [3] was 1900 µg/mL. It also gave an Individual related material ([4]; Initial) of 0.13%, a Total related material ([4]; Initial) of 1.13% and an Individual related material ([4]; Solid, Control) of 0.14%. It also gave a Total related material ([4]; Solid, Control) of 0.14%, an Individual related material ([4]; Solid, UV (200 W-h/m2)) of 0.13% and a Total related material ([4]; Solid, UV (200 W-h/m2)) of 0.27%. It also gave an Individual related material ([4]; Solid, UV + Vis) of 0.13%, a Total related material ([4]; Solid, UV + Vis) of 0.72% and an Individual related material ([4]; Solid, UV + Vis Control) of 0.14%. For the same compound, the Total related material ([4]; Solid, UV + Vis Control) was 0.14%, the Individual related material ([4]; Solid, Vis (1.2M Lux-h)) was 0.13% and the Total related material ([4]; Solid, Vis (1.2M Lux-h)) was 0.68%.
